Results taken from US12721928B1, “Active agent-eluting hemostatic agents for prevention of surgical site infection” (priority 2020, dated 2026).
Read-outs that look alike come from different tables or passages of the source.

Tests used:
mammalian cells = conditions: cited from earlier work
S. aureus = assay: Modified Kirby-Bauer disk diffusion test; type: cell-based, Staphylococcus aureus; conditions: filter paper on S. aureus coated agar
Experimental: Inhibition of S. Aureus 25293 or E. Coli (Migula) Castellani and Chalmers by antibiotic-eluting hemostatic agents was determined through modified Kirby-Bauer disk diffusion tests and microdilution assays. Throughout all Kirby-Bauer tests, agar plates were formed using tryptic soy agar. The plates were subsequently coated with the appropriate strain within its exponential growth phase at a concentration of 10^8 CFU/mL. Filter papers that had been incubated with the hemostatic agents, gelatin, or pure antibiotic equivalent to 24-hour release concentrations for two hours were then immediately placed upon the plates. Zones of inhibition were measured and photographed following 16-18 hours of incubation at 37° C.

[1] = FTIR of antibiotic released from hemostatic agents (structural integrity); conditions: all released samples
Text: FTIR spectra were collected on a Nicolet Is10 to ensure structural integrity of antibiotics released from the hemostatic agents. Released samples were scanned in the range between 4000 and 800 cm^−1.

cultured cells = conditions: EDC up to 10 mg/mL; cited from earlier work

For gelatin, the “toxicity to mammalian cells” value (mammalian cells) is listed as “minimally toxic”.

With `CCCCCCCCCC(=O)N[C@@H](Cc1c[nH]c2ccccc12)C(=O)N[C@H](CC(N)=O)C(=O)N[C@@H](CC(=O)O)C(=O)N[C@@H]1C(=O)NCC(=O)N[C@@H](CCCN)C(=O)N[C@@H](CC(=O)O)C(=O)N[C@H](C)C(=O)N[C@@H](CC(=O)O)C(=O)NCC(=O)N[C@H](CO)C(=O)N[C@@H]([C@H](C)CC(=O)O)C(=O)N[C@@H](CC(=O)c2ccccc2N)C(=O)O[C@@H]1C` [daptomycin] the “zone of inhibition (ZOI)” value (S. aureus) was “clear zone of inhibition”.

For `CN[C@H](CC(C)C)C(=O)N[C@H]1C(=O)N[C@@H](CC(N)=O)C(=O)N[C@H]2C(=O)N[C@H]3C(=O)N[C@H](C(=O)N[C@H](C(=O)O)c4cc(O)cc(O)c4-c4cc3ccc4O)[C@H](O)c3ccc(c(Cl)c3)Oc3cc2cc(c3O[C@@H]2O[C@H](CO)[C@@H](O)[C@H](O)[C@H]2O[C@H]2C[C@](C)(N)[C@H](O)[C@H](C)O2)Oc2ccc(cc2Cl)[C@H]1O` [vancomycin], the “zone of inhibition (ZOI)” value (S. aureus) is given as “clear zone of inhibition”, the “toxicity to mammalian cells” value (mammalian cells; each component separately) is given as “minimally toxic” and the “basic chemical stability of released antibiotic” value [1] is given as “confirmed”.

In the case of `CCN=C=NCCCN(C)C` [EDC, 1-ethyl-3-(3-dimethylaminopropyl) carbodiimide], the “cytotoxicity to cultured cells” value (cultured cells) is given as “negligibly cytotoxic”.

With `CC(C)(O/N=C(\C(=O)N[C@@H]1C(=O)N2C(C(=O)[O-])=C(C[n+]3ccccc3)CS[C@H]12)c1csc(N)n1)C(=O)O` [ceftazidime] the “basic chemical stability of released antibiotic” value [1] was “confirmed”.
